Results taken from ChEMBL document CHEMBL1649216, “The diarylquinoline R207910 is bactericidal against Mycobacterium leprae in mice at low dose and administered intermittently” (Antimicrob Agents Chemother, 2009).
Active and inactive are the calls of the source.

Tests used:
Format in all cases: functional, organism-based
[1] = test system: Mycobacterium leprae; test: Antimycobacterial activity against Mycobacterium leprae infected in CBA/J mouse assessed as microbial growth inhibition at 50 mg/kg, po administered once monthly during logarithmic multiplication from day 60 to day 150 post infection measured on day 152 post infection; parameters: dose 50 mg/kg
[2] = test system: Mycobacterium leprae; test: Antimycobacterial activity against Mycobacterium leprae infected in CBA/J mouse assessed as microbial growth inhibition at 100 mg/kg, po administered once weekly during logarithmic multiplication from day 60 to day 150 post infection measured on day 228 post infection; parameters: dose 100 mg/kg
[3] = test system: Mycobacterium leprae; test: Antimycobacterial activity against Mycobacterium leprae infected in CBA/J mouse assessed as microbial growth inhibition at 100 mg/kg, po administered once monthly during logarithmic multiplication from day 60 to day 150 post infection measured on day 228 post infection; parameters: dose 100 mg/kg
[4] = test system: Mycobacterium leprae; test: Antimycobacterial activity against Mycobacterium leprae infected in CBA/J mouse assessed as microbial growth inhibition at 120 mg/kg, po administered once monthly during logarithmic multiplication from day 60 to day 150 post infection measured on day 228 post infection; parameters: dose 120 mg/kg
[5] = test system: Mycobacterium leprae; test: Antimycobacterial activity against Mycobacterium leprae infected in CBA/J mouse assessed as microbial growth inhibition at 25 mg/kg, po administered 5 times weekly during logarithmic multiplication from day 60 to day 150 post infection measured on day 228 post infection; parameters: dose 25 mg/kg
[6] = test system: Mycobacterium leprae; test: Antimycobacterial activity against Mycobacterium leprae infected in CBA/J mouse assessed as microbial growth inhibition at 3 mg/kg, po administered 5 times weekly during logarithmic multiplication from day 60 to day 150 post infection measured on day 228 post infection; parameters: dose 3 mg/kg
[7] = test system: Mycobacterium leprae; test: Antimycobacterial activity against Mycobacterium leprae infected in CBA/J mouse assessed as microbial growth inhibition at 12.5 mg/kg, po administered 5 times weekly during logarithmic multiplication from day 60 to day 150 post infection measured on day 228 post infection; parameters: dose 12.5 mg/kg
[8] = test system: Mycobacterium leprae; test: Antimycobacterial activity against Mycobacterium leprae infected in CBA/J mouse assessed as microbial growth inhibition at 1 mg/kg, po administered 5 times weekly during logarithmic multiplication from day 60 to day 150 post infection measured on day 152 post infection; parameters: dose 1 mg/kg
[9] = test system: Mycobacterium leprae; test: Antimycobacterial activity against Mycobacterium leprae infected in CBA/J mouse assessed as microbial growth inhibition at 6 mg/kg, po administered 5 times weekly during logarithmic multiplication from day 60 to day 150 post infection measured on day 228 post infection; parameters: dose 6 mg/kg
[10] = test system: Mycobacterium leprae; test: Antimycobacterial activity against Mycobacterium leprae infected in CBA/J mouse assessed as microbial growth inhibition at 25 mg/kg, po administered once monthly during logarithmic multiplication from day 60 to day 150 post infection measured on day 152 post infection; parameters: dose 25 mg/kg
[11] = test system: Mycobacterium leprae; test: Antimycobacterial activity against Mycobacterium leprae infected in CBA/J mouse assessed as microbial growth inhibition at 1 mg/kg, po administered 5 times weekly during logarithmic multiplication from day 60 to day 150 post infection measured on day 228 post infection; parameters: dose 1 mg/kg
[12] = test system: Mycobacterium leprae; test: Antimycobacterial activity against Mycobacterium leprae infected in CBA/J mouse assessed as microbial growth inhibition at 120 mg/kg, po administered once monthly during logarithmic multiplication from day 60 to day 150 post infection measured on day 302 to 365 post infection; parameters: dose 120 mg/kg
[13] = test system: Mycobacterium leprae; test: Antimycobacterial activity against Mycobacterium leprae infected in CBA/J mouse assessed as microbial growth inhibition at 50 mg/kg, po administered once weekly during logarithmic multiplication from day 60 to day 150 post infection measured on day 152 post infection; parameters: dose 50 mg/kg
[14] = test system: Mycobacterium leprae; test: Antimycobacterial activity against Mycobacterium leprae infected in CBA/J mouse assessed as microbial growth inhibition at 100 mg/kg, po administered once weekly during logarithmic multiplication from day 60 to day 150 post infection measured on day 302 to 365 post infection; parameters: dose 100 mg/kg
[15] = test system: Mycobacterium leprae; test: Antimycobacterial activity against Mycobacterium leprae infected in CBA/J mouse assessed as microbial growth inhibition at 25 mg/kg, po administered once weekly during logarithmic multiplication from day 60 to day 150 post infection measured on day 228 post infection; parameters: dose 25 mg/kg
[16] = test system: Mycobacterium leprae; test: Antimycobacterial activity against Mycobacterium leprae infected in CBA/J mouse assessed as microbial growth inhibition at 120 mg/kg, po administered once monthly during logarithmic multiplication from day 60 to day 150 post infection measured on day 152 post infection; parameters: dose 120 mg/kg
[17] = test system: Mycobacterium leprae; test: Antimycobacterial activity against Mycobacterium leprae infected in CBA/J mouse assessed as microbial growth inhibition at 50 mg/kg, po administered once monthly during logarithmic multiplication from day 60 to day 150 post infection measured on day 228 post infection; parameters: dose 50 mg/kg
[18] = test system: Mycobacterium leprae; test: Antimycobacterial activity against Mycobacterium leprae infected in CBA/J mouse assessed as microbial growth inhibition at 100 mg/kg, po administered once monthly during logarithmic multiplication from day 60 to day 150 post infection measured on day 152 post infection; parameters: dose 100 mg/kg
[19] = test system: Mycobacterium leprae; test: Antimycobacterial activity against Mycobacterium leprae infected in CBA/J mouse assessed as microbial growth inhibition at 30 mg/kg, po administered once weekly during logarithmic multiplication from day 60 to day 150 post infection measured on day 152 post infection; parameters: dose 30 mg/kg
[20] = test system: Mycobacterium leprae; test: Antimycobacterial activity against Mycobacterium leprae infected in CBA/J mouse assessed as microbial growth inhibition at 25 mg/kg, po administered once monthly during logarithmic multiplication from day 60 to day 150 post infection measured on day 228 post infection; parameters: dose 25 mg/kg
[21] = test system: Mycobacterium leprae; test: Antimycobacterial activity against Mycobacterium leprae infected in CBA/J mouse assessed as microbial growth inhibition at 3 mg/kg, po administered 5 times weekly during logarithmic multiplication from day 60 to day 150 post infection measured on day 152 post infection; parameters: dose 3 mg/kg
[22] = test system: Mycobacterium leprae; test: Antimycobacterial activity against Mycobacterium leprae infected in CBA/J mouse assessed as microbial growth inhibition at 12.5 mg/kg, po administered 5 times weekly during logarithmic multiplication from day 60 to day 150 post infection measured on day 152 post infection; parameters: dose 12.5 mg/kg
[23] = test system: Mycobacterium leprae; test: Antimycobacterial activity against Mycobacterium leprae infected in CBA/J mouse assessed as microbial growth inhibition at 50 mg/kg, po administered once weekly during logarithmic multiplication from day 60 to day 150 post infection measured on day 302 to 365 post infection; parameters: dose 50 mg/kg
[24] = test system: Mycobacterium leprae; test: Antimycobacterial activity against Mycobacterium leprae infected in CBA/J mouse assessed as microbial growth inhibition at 25 mg/kg, po administered 5 times weekly during logarithmic multiplication from day 60 to day 150 post infection measured on day 152 post infection; parameters: dose 25 mg/kg
[25] = test system: Mycobacterium leprae; test: Antimycobacterial activity against Mycobacterium leprae infected in CBA/J mouse assessed as microbial growth inhibition at 30 mg/kg, po administered once weekly during logarithmic multiplication from day 60 to day 150 post infection measured on day 302 to 365 post infection; parameters: dose 30 mg/kg
[26] = test system: Mycobacterium leprae; test: Antimycobacterial activity against Mycobacterium leprae infected in CBA/J mouse assessed as microbial growth inhibition at 25 mg/kg, po administered once weekly during logarithmic multiplication from day 60 to day 150 post infection measured on day 152 post infection; parameters: dose 25 mg/kg
[27] = test system: Mycobacterium leprae; test: Antimycobacterial activity against Mycobacterium leprae infected in CBA/J mouse assessed as microbial growth inhibition at 30 mg/kg, po administered once weekly during logarithmic multiplication from day 60 to day 150 post infection measured on day 228 post infection; parameters: dose 30 mg/kg
[28] = test system: Mycobacterium leprae; test: Antimycobacterial activity against Mycobacterium leprae infected in CBA/J mouse assessed as microbial growth inhibition at 50 mg/kg, po administered once monthly during logarithmic multiplication from day 60 to day 150 post infection measured on day 302 to 365 post infection; parameters: dose 50 mg/kg
[29] = test system: Mycobacterium leprae; test: Antimycobacterial activity against Mycobacterium leprae infected in CBA/J mouse assessed as microbial growth inhibition at 50 mg/kg, po administered once weekly during logarithmic multiplication from day 60 to day 150 post infection measured on day 228 post infection; parameters: dose 50 mg/kg
[30] = test system: Mycobacterium leprae; test: Antimycobacterial activity against Mycobacterium leprae infected in CBA/J mouse assessed as microbial growth inhibition at 6 mg/kg, po administered 5 times weekly during logarithmic multiplication from day 60 to day 150 post infection measured on day 152 post infection; parameters: dose 6 mg/kg
[31] = test system: Mycobacterium leprae; test: Antimycobacterial activity against Mycobacterium leprae infected in CBA/J mouse assessed as microbial growth inhibition at 100 mg/kg, po administered once weekly during logarithmic multiplication from day 60 to day 150 post infection measured on day 152 post infection; parameters: dose 100 mg/kg

Measured: growth inhibition (GI)

COc1nc2ccc(Br)cc2cc1[C@@H](c1ccccc1)[C@@](O)(CCN(C)C)c1cccc2ccccc12
active: all assays above
